Reference: PubChem BioAssay (NCI)
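In this assay, cells in 96-well plates receive the compound at five concentrations for 48 hours. Endpoints are linearly interpolated between the surrounding concentrations. GI50 marks 50% less growth. TGI denotes the concentration required for complete inhibition of growth.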 Where a SMILES comes first, the peptide text is derived from it. [ ]: non-standard residue; d: D form. The star is where a group is joined. X13 = OC[C@H](CC1CCCCC1)N*; dIva = CC[C@@](C)(N)C(=O)O; Aib = CC(C)(N)C(=O)O

What was measured:
Test in all cases: DTP human tumour cell line panel, 48 h
A549 NSCLC = test system: A549 NSCLC
COLO 205 colon = test system: COLO 205 colon
PC-3 prostate = test system: PC-3 prostate
MOLT-4 leukemia = test system: MOLT-4 leukemia
SK-OV-3 ovarian = test system: SK-OV-3 ovarian
OVCAR-5 ovarian = test system: OVCAR-5 ovarian
SF-268 CNS = test system: SF-268 CNS
HOP-92 NSCLC = test system: HOP-92 NSCLC
NCI-H23 lung = test system: NCI-H23 lung
LOX IMVI melanoma = test system: LOX IMVI melanoma
U251 CNS = test system: U251 CNS
HS 578T breast = test system: HS 578T breast
HCC-2998 colon = test system: HCC-2998 colon
MCF7 breast = test system: MCF7 breast
KM12 colon = test system: KM12 colon
SK-MEL-2 melanoma = test system: SK-MEL-2 melanoma
EKVX NSCLC = test system: EKVX NSCLC
HL-60(TB) leukemia = test system: HL-60(TB) leukemia
T-47D breast = test system: T-47D breast
IGROV1 ovarian = test system: IGROV1 ovarian
HT29 colon = test system: HT29 colon
NCI-H460 lung = test system: NCI-H460 lung
A498 renal = test system: A498 renal
CCRF-CEM leukemia = test system: CCRF-CEM leukemia
HCT-15 colon = test system: HCT-15 colon
SR leukemia = test system: SR leukemia
NCI-H522 lung = test system: NCI-H522 lung
MDA-MB-231 breast = test system: MDA-MB-231 breast
MALME-3M melanoma = test system: MALME-3M melanoma
TK-10 renal = test system: TK-10 renal
K-562 leukemia = test system: K-562 leukemia
UO-31 renal = test system: UO-31 renal
MDA-MB-435 = test system: MDA-MB-435
HOP-62 NSCLC = test system: HOP-62 NSCLC
SNB-75 CNS = test system: SNB-75 CNS
ACHN renal = test system: ACHN renal
SW-620 colon = test system: SW-620 colon
OVCAR-3 ovarian = test system: OVCAR-3 ovarian
UACC-62 melanoma = test system: UACC-62 melanoma
SK-MEL-5 melanoma = test system: SK-MEL-5 melanoma
SF-295 CNS = test system: SF-295 CNS
OVCAR-4 ovarian = test system: OVCAR-4 ovarian
RPMI-8226 leukemia = test system: RPMI-8226 leukemia
SN12C renal = test system: SN12C renal
UACC-257 melanoma = test system: UACC-257 melanoma
RXF 393 renal = test system: RXF 393 renal
SF-539 CNS = test system: SF-539 CNS
NCI/ADR-RES ovarian = test system: NCI/ADR-RES ovarian
NCI-H226 lung = test system: NCI-H226 lung
SK-MEL-28 melanoma = test system: SK-MEL-28 melanoma
SNB-19 CNS = test system: SNB-19 CNS
OVCAR-8 ovarian = test system: OVCAR-8 ovarian

SMILES: CC[C@@](C)(NC(=O)C(C)(C)NC(=O)[C@@H](NC(=O)[C@@H]1CCCN1C(=O)C(C)(C)NC(=O)[C@H](CC(C)C)NC(=O)CNC(=O)C(C)(C)NC(=O)[C@@H](NC(=O)C(C)(C)NC(=O)[C@H](CCC(N)=O)NC(=O)[C@H](C)NC(=O)C(C)(C)NC(=O)[C@H](C)NC(=O)C(C)(C)NC(=O)[C@H](C)NC(=O)C(C)(C)NC(C)=O)C(C)C)C(C)C)C(=O)N[C@@H](CCC(N)=O)C(=O)N[C@@H](CCC(N)=O)C(=O)N[C@H](CO)CC1CCCCC1 (Ac-[Aib]A[Aib]A[Aib]AQ[Aib]V[Aib]GL[Aib]PV[Aib][dIva]QQ-X13)
- GI50 (A549 NSCLC): 3000 nM
- TGI (A549 NSCLC): > 5000 nM
- GI50 (COLO 205 colon): 1470 nM
- TGI (COLO 205 colon): > 5000 nM
- GI50 (PC-3 prostate): 1320 nM
- TGI (PC-3 prostate): > 5000 nM
- GI50 (MOLT-4 leukemia): 2650 nM
- TGI (MOLT-4 leukemia): > 5000 nM
- GI50 (SK-OV-3 ovarian): 1890 nM
- TGI (SK-OV-3 ovarian): > 5000 nM
- GI50 (OVCAR-5 ovarian): 2840 nM
- TGI (OVCAR-5 ovarian): > 5000 nM
- GI50 (SF-268 CNS): 1740 nM
- TGI (SF-268 CNS): > 5000 nM
- GI50 (HOP-92 NSCLC): 854 nM
- TGI (HOP-92 NSCLC): 3380 nM
- GI50 (NCI-H23 lung): 1060 nM
- TGI (NCI-H23 lung): > 5000 nM
- GI50 (LOX IMVI melanoma): 1490 nM
- TGI (LOX IMVI melanoma): > 5000 nM
- GI50 (U251 CNS): 1490 nM
- TGI (U251 CNS): > 5000 nM
- GI50 (HS 578T breast): 1810 nM
- TGI (HS 578T breast): > 5000 nM
- GI50 (HCC-2998 colon): 2040 nM
- TGI (HCC-2998 colon): > 5000 nM
- GI50 (MCF7 breast): 281 nM
- TGI (MCF7 breast): > 5000 nM
- GI50 (KM12 colon): 1890 nM
- TGI (KM12 colon): > 5000 nM
- GI50 (SK-MEL-2 melanoma): 1220 nM
- TGI (SK-MEL-2 melanoma): 3830 nM
- GI50 (EKVX NSCLC): > 5000 nM
- TGI (EKVX NSCLC): > 5000 nM
- GI50 (HL-60(TB) leukemia): 1440 nM
- TGI (HL-60(TB) leukemia): 4020 nM
- GI50 (T-47D breast): 1560 nM
- TGI (T-47D breast): > 5000 nM
- GI50 (IGROV1 ovarian): 2650 nM
- TGI (IGROV1 ovarian): > 5000 nM
- GI50 (HT29 colon): 2250 nM
- TGI (HT29 colon): > 5000 nM
- GI50 (NCI-H460 lung): 1600 nM
- TGI (NCI-H460 lung): > 5000 nM
- GI50 (A498 renal): 1390 nM
- TGI (A498 renal): > 5000 nM
- GI50 (CCRF-CEM leukemia): 2790 nM
- TGI (CCRF-CEM leukemia): > 5000 nM
- GI50 (HCT-15 colon): > 5000 nM
- TGI (HCT-15 colon): > 5000 nM
- GI50 (SR leukemia): 2010 nM
- TGI (SR leukemia): > 5000 nM
- GI50 (NCI-H522 lung): 1280 nM
- TGI (NCI-H522 lung): > 5000 nM
- GI50 (MDA-MB-231 breast): 1530 nM
- TGI (MDA-MB-231 breast): > 5000 nM
- GI50 (MALME-3M melanoma): 1180 nM
- TGI (MALME-3M melanoma): 3980 nM
- GI50 (TK-10 renal): > 5000 nM
- TGI (TK-10 renal): > 5000 nM
- GI50 (K-562 leukemia): 1780 nM
- TGI (K-562 leukemia): > 5000 nM
- GI50 (UO-31 renal): > 5000 nM
- TGI (UO-31 renal): > 5000 nM
- GI50 (MDA-MB-435): 1550 nM
- TGI (MDA-MB-435): > 5000 nM
- GI50 (HOP-62 NSCLC): > 5000 nM
- TGI (HOP-62 NSCLC): > 5000 nM
- GI50 (SNB-75 CNS): 1240 nM
- TGI (SNB-75 CNS): > 5000 nM
- GI50 (ACHN renal): > 5000 nM
- TGI (ACHN renal): > 5000 nM
- GI50 (SW-620 colon): 3650 nM
- TGI (SW-620 colon): > 5000 nM
- GI50 (OVCAR-3 ovarian): 1250 nM
- TGI (OVCAR-3 ovarian): > 5000 nM
- GI50 (UACC-62 melanoma): 1860 nM
- TGI (UACC-62 melanoma): > 5000 nM
- GI50 (SK-MEL-5 melanoma): 1310 nM
- TGI (SK-MEL-5 melanoma): 4840 nM
- GI50 (SF-295 CNS): > 5000 nM
- TGI (SF-295 CNS): > 5000 nM
- GI50 (OVCAR-4 ovarian): 2820 nM
- TGI (OVCAR-4 ovarian): > 5000 nM
- GI50 (RPMI-8226 leukemia): 198 nM
- TGI (RPMI-8226 leukemia): 1870 nM
- GI50 (SN12C renal): 460 nM
- TGI (SN12C renal): > 5000 nM
- GI50 (UACC-257 melanoma): 1000 nM
- TGI (UACC-257 melanoma): 4410 nM
- GI50 (RXF 393 renal): 1750 nM
- TGI (RXF 393 renal): > 5000 nM
- GI50 (SF-539 CNS): 1490 nM
- TGI (SF-539 CNS): > 5000 nM
- GI50 (NCI/ADR-RES ovarian): > 5000 nM
- TGI (NCI/ADR-RES ovarian): > 5000 nM
- GI50 (NCI-H226 lung): > 5000 nM
- TGI (NCI-H226 lung): > 5000 nM
- GI50 (SK-MEL-28 melanoma): 2040 nM
- TGI (SK-MEL-28 melanoma): > 5000 nM
- GI50 (SNB-19 CNS): 1380 nM
- TGI (SNB-19 CNS): > 5000 nM
- GI50 (OVCAR-8 ovarian): > 5000 nM
- TGI (OVCAR-8 ovarian): > 5000 nM
